Test results taken from ChEMBL document CHEMBL4483862, “Open-source discovery of chemical leads for next-generation chemoprotective antimalarials” (2018).

System: Plasmodium berghei
Test: Luciferase/luciferin-expressing antifolate-resistant parasites were used to infect a culture of HepG2 cells that were pre-incubated with compounds. Infected hepatocytes emit light due to the luciferase reaction. Assay results are presented as the percent inhibition of light emission compared to control. […]
Assay type: functional
Conditions: sporozoite; for IC90: read-out: LUCIFERASE INFECTION ASSAY - IC90
[1] = read-out: LUCIFERASE INFECTION ASSAY - IC50

Compound: COc1cc(/C=C/C(=O)c2ccc3[nH]c(=O)[nH]c3c2)cc(Cl)c1OC(F)F
- IC50 (PBLUC_HILL_SLOPE 1.43, PBLUC_R_SQUARED 0.612, read-out: LUCIFERASE INFECTION ASSAY - IC50): 6.07 µM
- IC90: > 10 µM

Compound: Cc1ccccc1-c1cccc(CN2CCC3(CC2)C(=O)N(CCCc2ccncc2)C(=O)N3C)c1
- IC50 (HEPG2TOX_HILL_SLOPE 0.98, HEPG2TOX_R_SQUARED 0.922, PBLUC_HILL_SLOPE 14, PBLUC_R_SQUARED 0.565, read-out: LUCIFERASE INFECTION ASSAY - IC50): 2.16 µM
- IC90: 2.53 µM

Compound: COc1cc(-c2nc3ccc(NC(=O)Nc4cccc(C(F)(F)F)c4)cn3n2)cc(OC)c1OC
- IC50 (HEPG2TOX_HILL_SLOPE 15.4, HEPG2TOX_R_SQUARED 0.156, PBLUC_HILL_SLOPE 4.31, PBLUC_R_SQUARED 0.169, read-out: LUCIFERASE INFECTION ASSAY - IC50): 5.06 µM
- IC90: 8.43 µM

Compound: CCOc1ccc(-c2nc(CSC(C)C(=O)Nc3c(Cl)cccc3Cl)cs2)cc1 (stereo not drawn)
- IC50 [1]: > 10 µM
- IC90: > 10 µM

Compound: Cc1nn(Cc2ccccc2Cl)c(Cl)c1/C=C/C(=O)OC(C)C(=O)N1CCCc2ccccc21 (stereo not drawn)
- IC50 [1]: > 10 µM
- IC90: > 10 µM

Compound: CC1CCc2c(sc3c2C(=O)NC(/C(Br)=C/c2ccccc2)N3)C1 (stereo not drawn)
- IC50 (FFLUC_HILL_SLOPE 0.906, FFLUC_R_SQUARED 0.617, HEPG2TOX_HILL_SLOPE 7.13, HEPG2TOX_R_SQUARED 0.573, PBLUC_HILL_SLOPE 13.5, PBLUC_R_SQUARED 0.659, read-out: LUCIFERASE INFECTION ASSAY - IC50): 3.35 µM
- IC90: 3.94 µM

Compound: O=C(Nc1nnc(C(F)(F)F)s1)c1ccc(F)c(Cl)c1
- IC50 (HEPG2TOX_HILL_SLOPE 1.54, HEPG2TOX_R_SQUARED 0.943, PBLUC_HILL_SLOPE 14.8, PBLUC_R_SQUARED 0.531, read-out: LUCIFERASE INFECTION ASSAY - IC50): 3.48 µM
- IC90: 4.03 µM

Compound: CCn1cc(C(=O)OC)c(=O)c2cc(C(F)(F)F)ccc21
- IC50 (PBLUC_HILL_SLOPE 2.56, PBLUC_R_SQUARED 0.477, read-out: LUCIFERASE INFECTION ASSAY - IC50): 5.72 µM
- IC90: > 11 µM

Compound: CC(=O)Nc1cccc(-c2cn3c(-c4ccc(CO)cc4)cnc3cn2)c1
- IC50 (PBLUC_HILL_SLOPE 4.55, PBLUC_R_SQUARED 0.47, read-out: LUCIFERASE INFECTION ASSAY - IC50): 6.15 µM
- IC90: > 9.21 µM

Compound: COc1cc(/C=N/NC(=S)Nc2ccccc2OC)ccc1O
- IC50 (FFLUC_HILL_SLOPE 0.707, FFLUC_R_SQUARED 0.581, PBLUC_HILL_SLOPE 0.242, PBLUC_R_SQUARED 0.281, read-out: LUCIFERASE INFECTION ASSAY - IC50): > 9.96 µM
- IC90: > 9.96 µM

Compound: COc1c(Cl)cc(C(=O)Nc2nonc2-c2ccc(F)cc2)cc1Cl
- IC50 (HEPG2TOX_HILL_SLOPE 3.32, HEPG2TOX_R_SQUARED 0.957, PBLUC_HILL_SLOPE 18.3, PBLUC_R_SQUARED 0.283, read-out: LUCIFERASE INFECTION ASSAY - IC50): 2.49 µM
- IC90: 2.81 µM

Compound: O=C(Nc1ccc(OC(F)(F)F)cc1)Nc1ccccc1Sc1ncc([N+](=O)[O-])cc1C(F)(F)F
- IC50 (FFLUC_HILL_SLOPE 90.5, FFLUC_R_SQUARED 0.394, read-out: LUCIFERASE INFECTION ASSAY - IC50): > 6.37 µM
- IC90: > 6.37 µM

Compound: COc1cc(NC(=O)COC(=O)c2ccccc2Nc2ccc(SC(F)F)cc2)c(C)cc1[N+](=O)[O-]
- IC50 (HEPG2TOX_HILL_SLOPE 0.171, HEPG2TOX_R_SQUARED 0.654, read-out: LUCIFERASE INFECTION ASSAY - IC50): > 10 µM
- IC90: > 10 µM

Compound: NNc1nc(C(F)(F)F)nc2c1cnn2-c1ccccc1
- IC50 (PBLUC_HILL_SLOPE 6.68, PBLUC_R_SQUARED 0.4, read-out: LUCIFERASE INFECTION ASSAY - IC50): 3.62 µM
- IC90: 5.03 µM

Compound: Cc1nc(-c2ccccn2)nc(NCc2ccccc2)c1Cl
- IC50 (PBLUC_HILL_SLOPE 11, PBLUC_R_SQUARED 0.469, read-out: LUCIFERASE INFECTION ASSAY - IC50): 8.06 µM
- IC90: 9.83 µM

Compound: Cc1ccc(C)c(S(=O)(=O)Oc2ccccc2C(=O)OCC(=O)c2c(C)[nH]c3ccccc23)c1
- IC50 (HEPG2TOX_HILL_SLOPE 0.276, HEPG2TOX_R_SQUARED 0.379, PBLUC_HILL_SLOPE 12.5, PBLUC_R_SQUARED 0.167, read-out: LUCIFERASE INFECTION ASSAY - IC50): > 10 µM
- IC90: > 10 µM

Compound: O=C(NC1CCCC1)c1ccc(-c2cn3c(-c4ccc(CO)cc4)cnc3cn2)cc1
- IC50 (PBLUC_HILL_SLOPE 20, PBLUC_R_SQUARED 0.468, read-out: LUCIFERASE INFECTION ASSAY - IC50): 6.98 µM
- IC90: 7.79 µM

Compound: N#Cc1ccc(NC(=O)Nc2ccc(C#N)cc2)cc1
- IC50 [1]: 3.52 µM
- IC90: 4.08 µM

Compound: CCN(CC)c1ccc(NC(=O)c2[nH]nc3ccccc23)cc1S(=O)(=O)Nc1ccc(OC)cc1
- IC50 (PBLUC_HILL_SLOPE 10.5, PBLUC_R_SQUARED 0.206, read-out: LUCIFERASE INFECTION ASSAY - IC50): 9.2 µM
- IC90: > 10 µM

Compound: C=CCNC(=O)NCC(=O)Nc1ccc(OC)c(Cl)c1
- IC50 [1]: > 10 µM
- IC90: > 10 µM

Compound: COCc1cccc(C(=O)Nc2ccc3c(c2)OC(F)(F)O3)c1
- IC50 (HEPG2TOX_HILL_SLOPE 7.81, HEPG2TOX_R_SQUARED 0.0219, PBLUC_HILL_SLOPE 15.2, PBLUC_R_SQUARED 0.505, read-out: LUCIFERASE INFECTION ASSAY - IC50): 9.35 µM
- IC90: > 10 µM

Compound: CN(CC(=O)Nc1ccc(OC(F)(F)F)cc1)Cc1cc([N+](=O)[O-])ccc1O
- IC50 (HEPG2TOX_HILL_SLOPE 2.38, HEPG2TOX_R_SQUARED 0.828, PBLUC_HILL_SLOPE 9.41, PBLUC_R_SQUARED 0.824, read-out: LUCIFERASE INFECTION ASSAY - IC50): 2.64 µM
- IC90: 3.33 µM

Compound: COc1cc(NC(=O)Nc2cc(Cl)cc(Cl)c2)cc(C(F)(F)F)c1
- IC50 (HEPG2TOX_HILL_SLOPE 3.42, HEPG2TOX_R_SQUARED 0.986, PBLUC_HILL_SLOPE 0.84, PBLUC_R_SQUARED 0.7, read-out: LUCIFERASE INFECTION ASSAY - IC50): 0.0547 µM
- IC90: 0.748 µM

Compound: CCOc1cc(N2CCOCC2)c(OCC)cc1NC(=O)c1n[nH]c(=O)c2ccccc12
- IC50 [1]: > 10 µM
- IC90: > 10 µM

Compound: O=C(Nc1ccc(OC(F)(F)F)cc1)Nc1cc(-c2ccco2)n[nH]1
- IC50 (PBLUC_HILL_SLOPE 2.58, PBLUC_R_SQUARED 0.157, read-out: LUCIFERASE INFECTION ASSAY - IC50): 7.52 µM
- IC90: > 9.37 µM

Compound: COc1ccc(C(N)=O)c(OCCOc2ccc(C(C)C)c(C)c2)c1
- IC50 (PBLUC_HILL_SLOPE 1.7, PBLUC_R_SQUARED 0.184, read-out: LUCIFERASE INFECTION ASSAY - IC50): 4.61 µM
- IC90: > 10 µM

Compound: CC1CCN(Cc2csc(NC(=O)c3ccc(SCc4cscn4)cc3)n2)CC1
- IC50 (HEPG2TOX_HILL_SLOPE 2.61, HEPG2TOX_R_SQUARED 0.966, PBLUC_HILL_SLOPE 9.48, PBLUC_R_SQUARED 0.381, read-out: LUCIFERASE INFECTION ASSAY - IC50): 7.74 µM
- IC90: 9.76 µM

Compound: c1ccc(CN2CCc3nc(NCc4ccc(Oc5ccccc5)cc4)ncc3C2)cc1
- IC50 [1]: > 7.81 µM
- IC90: > 7.81 µM

Compound: Cn1ccc2cc(-c3cn4c(-c5cccc(F)c5)cnc4cn3)ccc21
- IC50 (HEPG2TOX_HILL_SLOPE 1.6, HEPG2TOX_R_SQUARED 0.918, PBLUC_HILL_SLOPE 3.4, PBLUC_R_SQUARED 0.713, read-out: LUCIFERASE INFECTION ASSAY - IC50): 1.14 µM
- IC90: 2.18 µM

Compound: O=C(/C=C/c1ccccc1)N1CCN(S(=O)(=O)c2ccccc2C(F)(F)F)CC1
- IC50 (HEPG2TOX_HILL_SLOPE 0.114, HEPG2TOX_R_SQUARED 0.819, PBLUC_HILL_SLOPE 7.50, 16.5, PBLUC_R_SQUARED 0.237, 0.462, read-out: LUCIFERASE INFECTION ASSAY - IC50): 5.45 µM
- IC90: 6.57 µM

Compound: CCn1c(C)nc2cc(C(=O)N/N=C/c3sc(N4CCCCC4)nc3-c3cccs3)ccc21
- IC50 (HEPG2TOX_HILL_SLOPE 15, HEPG2TOX_R_SQUARED 0.462, PBLUC_HILL_SLOPE 10.3, PBLUC_R_SQUARED 0.738, read-out: LUCIFERASE INFECTION ASSAY - IC50): 3.26 µM
- IC90: 4.03 µM

Compound: CC(NCC(=O)N1c2ccc(S(N)(=O)=O)cc2CC1C)C1CC2CCC1C2 (stereo not drawn)
- IC50 (FFLUC_HILL_SLOPE 16.6, FFLUC_R_SQUARED 0.154, PBLUC_HILL_SLOPE 1.1, PBLUC_R_SQUARED 0.764, read-out: LUCIFERASE INFECTION ASSAY - IC50): 1.03 µM
- IC90: 7.51 µM

Compound: CNC(=O)c1cccc(-c2ccc3ncc(-c4ccc(CO)cc4)n3n2)c1
- IC50 (HEPG2TOX_HILL_SLOPE 13.1, HEPG2TOX_R_SQUARED 0.574, PBLUC_HILL_SLOPE 1.06, PBLUC_R_SQUARED 0.813, read-out: LUCIFERASE INFECTION ASSAY - IC50): 1.39 µM
- IC90: > 10 µM

Compound: COc1cc(Nc2cc3c(cn2)cc(-c2cnn(C)c2)n3Cc2ccccc2)cc(OC)c1OC
- IC50 [1]: 3.03 µM
- IC90: 3.72 µM

Compound: COc1ccc(CCC(=O)N(c2nc(-c3ccc(C)cc3)cs2)c2cc(C)ccc2C)cc1OC
- IC50 (HEPG2TOX_HILL_SLOPE 2.48, HEPG2TOX_R_SQUARED 0.955, PBLUC_HILL_SLOPE 14.1, PBLUC_R_SQUARED 0.228, read-out: LUCIFERASE INFECTION ASSAY - IC50): 3.6 µM
- IC90: 4.21 µM

Compound: O=C(CCc1nc2ccccc2s1)N(Cc1ccccc1F)C1CC1
- IC50 [1]: > 10 µM
- IC90: > 10 µM

Compound: Cc1ccc(C(NCC(=O)Nc2sccc2C(N)=O)c2cccs2)cc1 (stereo not drawn)
- IC50 (PBLUC_HILL_SLOPE 4.31, PBLUC_R_SQUARED 0.32, read-out: LUCIFERASE INFECTION ASSAY - IC50): 2.2 µM
- IC90: 3.67 µM

Compound: CCOC(=O)c1ccc(OC(C)C(=O)NC2CCCC(C)C2C)cc1 (stereo not drawn)
- IC50 [1]: > 10 µM
- IC90: > 10 µM

Compound: COc1ccc(O)c(C(=O)c2cnc3cc4c(cc3c2)OCCO4)c1
- IC50 (HEPG2TOX_HILL_SLOPE 0.562, HEPG2TOX_R_SQUARED 0.791, PBLUC_HILL_SLOPE 0.753, PBLUC_R_SQUARED 0.781, read-out: LUCIFERASE INFECTION ASSAY - IC50): 0.0655 µM
- IC90: 1.21 µM
